A short description of the test: Calcein leakage from SUVs, stated for several vesicle compositions together. As to conditions: control peptide; all SUVs tested: PC:PE (60:40), PC:PE (80:20), PC:PG (60:40).

On to melittin, for which the “calcein leakage (in words)” value is on record as “induced calcein leakage from all SUVs tested”.
